Results taken from paper PMC8395317, “The Simple Method of Preparation of Highly Carboxylated Bacterial Cellulose with Ni- and Mg-Ferrite-Based Versatile Magnetic Carrier for Enzyme Immobilization” (International Journal of Molecular Sciences, 2021).

System: T1, phospholipase A (PLA, Lecitase Ultra)
T1 construct: gene LIP; one fused chain: T. lanuginosus lipase N-terminal part (1-284) + F. oxysporum phospholipase A1 C-terminal part (285-339); commercial Lecitase Ultra (Sigma-Aldrich), used without further purification; free form
Assay: p-nitrophenol release, absorbance […] nm, Michaelis-Menten nonlinear fit
Type: biochemical, Thermomyces lanuginosus
Conditions: free enzyme; 0.1 to 1.2 mmol/L pNPB, 50 mmol/L phosphate pH 7.0, 0.004% Triton X-100, 30 °C

## CCCC(=O)Oc1ccc([N+](=O)[O-])cc1 [p-nitrophenyl-butyrate]
  Km: 490 ± 100 µM
